Test results: patent US9981954B2, “2-(pyrazin-2-ylcarbonylaminomethyl) benzimidazolium compounds as epithelial sodium channel inhibitors” (Boehringer Ingelheim International GmbH, priority 2015, dated 2018)

How the values were obtained:
[1] = molecular target: T1, ENaC (Epithelial Sodium Channel), Mouse kidney M-1 cells (Mus musculus, UniProt Q61180+Q9WU38+Q9WU39); assay: Ussing Chamber assay: inhibition of amiloride sensitive short circuit current in M-1 cells; format: cell-based; conditions: apical application, 37° C.
T1 construct: Mouse kidney M-1 cells were cultivated in DMEM containing 5% FCS and 5 μM dexamethasone; endogenous in cells; host or cells: Mouse kidney M-1 cells (polarised on transwell filters, dexamethasone-treated)
T1 sequence (Q61180 1-699): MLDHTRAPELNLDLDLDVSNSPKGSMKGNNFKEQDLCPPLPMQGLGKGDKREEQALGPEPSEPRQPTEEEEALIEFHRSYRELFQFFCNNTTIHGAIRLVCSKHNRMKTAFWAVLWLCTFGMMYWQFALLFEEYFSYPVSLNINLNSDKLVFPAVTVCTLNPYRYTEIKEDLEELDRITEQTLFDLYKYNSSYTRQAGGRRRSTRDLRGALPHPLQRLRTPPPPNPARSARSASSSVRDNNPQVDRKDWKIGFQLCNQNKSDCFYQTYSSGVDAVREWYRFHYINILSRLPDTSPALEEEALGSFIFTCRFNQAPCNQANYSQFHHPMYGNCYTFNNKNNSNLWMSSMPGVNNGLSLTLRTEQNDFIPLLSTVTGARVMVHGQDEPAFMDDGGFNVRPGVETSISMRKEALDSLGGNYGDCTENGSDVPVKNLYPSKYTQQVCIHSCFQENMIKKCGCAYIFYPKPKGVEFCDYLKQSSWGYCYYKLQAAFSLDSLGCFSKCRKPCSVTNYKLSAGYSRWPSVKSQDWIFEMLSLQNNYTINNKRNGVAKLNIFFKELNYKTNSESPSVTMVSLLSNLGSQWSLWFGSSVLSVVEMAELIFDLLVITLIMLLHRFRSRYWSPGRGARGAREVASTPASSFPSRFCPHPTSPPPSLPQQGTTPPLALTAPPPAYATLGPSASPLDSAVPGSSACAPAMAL
T1 sequence (Q9WU38 1-638): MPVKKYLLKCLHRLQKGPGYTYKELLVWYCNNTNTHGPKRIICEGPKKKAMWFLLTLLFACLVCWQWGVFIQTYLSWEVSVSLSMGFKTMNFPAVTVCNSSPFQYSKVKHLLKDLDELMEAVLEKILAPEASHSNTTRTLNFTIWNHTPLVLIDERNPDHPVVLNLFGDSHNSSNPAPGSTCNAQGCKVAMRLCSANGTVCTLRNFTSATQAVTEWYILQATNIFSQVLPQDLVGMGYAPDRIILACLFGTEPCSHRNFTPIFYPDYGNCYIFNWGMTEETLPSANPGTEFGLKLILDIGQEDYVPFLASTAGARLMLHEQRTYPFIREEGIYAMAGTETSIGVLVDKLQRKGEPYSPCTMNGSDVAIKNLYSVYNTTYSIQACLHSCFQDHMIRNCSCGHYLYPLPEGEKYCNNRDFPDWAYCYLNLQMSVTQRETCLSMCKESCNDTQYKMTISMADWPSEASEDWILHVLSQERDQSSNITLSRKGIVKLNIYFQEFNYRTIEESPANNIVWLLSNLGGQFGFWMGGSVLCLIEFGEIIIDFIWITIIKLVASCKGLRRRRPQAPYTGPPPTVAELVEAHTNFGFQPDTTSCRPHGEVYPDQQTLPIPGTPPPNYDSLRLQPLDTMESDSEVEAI
T1 sequence (Q9WU39 1-655): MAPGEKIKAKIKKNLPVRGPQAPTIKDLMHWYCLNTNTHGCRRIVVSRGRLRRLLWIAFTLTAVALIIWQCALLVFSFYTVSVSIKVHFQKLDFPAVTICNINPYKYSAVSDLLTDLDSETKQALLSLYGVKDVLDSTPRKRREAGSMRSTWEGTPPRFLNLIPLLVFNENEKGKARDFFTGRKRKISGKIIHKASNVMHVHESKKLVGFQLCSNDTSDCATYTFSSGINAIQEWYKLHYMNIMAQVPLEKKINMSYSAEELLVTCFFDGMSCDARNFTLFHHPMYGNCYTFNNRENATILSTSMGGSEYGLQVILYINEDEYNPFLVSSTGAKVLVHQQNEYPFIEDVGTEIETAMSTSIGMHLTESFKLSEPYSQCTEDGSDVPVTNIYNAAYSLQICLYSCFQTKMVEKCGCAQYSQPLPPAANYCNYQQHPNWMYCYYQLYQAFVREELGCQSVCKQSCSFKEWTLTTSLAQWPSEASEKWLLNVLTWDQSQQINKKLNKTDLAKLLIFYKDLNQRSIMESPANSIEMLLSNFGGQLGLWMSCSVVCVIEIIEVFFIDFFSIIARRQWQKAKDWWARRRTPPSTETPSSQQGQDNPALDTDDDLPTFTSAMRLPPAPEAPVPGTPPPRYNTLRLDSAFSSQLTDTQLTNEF
Method: Ussing Chamber: Mouse kidney M-1 cells were cultivated in DMEM containing 5% FCS and 5 μM dexamethasone for 10 to 12 days on polyester transwell filters. Filters were inserted into a teflon-coated well-plate which fit into the ussing chamber system. Prior to measurement the medium of M-1 cells was replaced with Caco-2 transport buffer (Invitrogen, Germany). During measurements, the Ussing chamber temperature was kept at 37° C. Short circuit currents (I_sc) were measured in the voltage-clamp mode with the software package Lab View for data acquisition and analysis. The transepithelial electrical resistance (TEER) was determined by the application of voltage steps of ±5 mV every 5 sec. Compounds were administered at a final concentration of 3 μM or at increasing concentrations (1-3-10 μM) to the apical solution. At the end of each experiment the amiloride sensitive I_SC was measured by adding 3 μM amiloride to the apical compartment. Results are expressed as inhibition in percent of the amiloride effect or as IC50.

[2] = Permeability in CALU-3 cells; format: in vitro ADME; conditions: human, CALU-3 monolayers, pH 7.4, 37° C., 10 μM compound; for Papp A→B at 90 min, 10 μM: apical-to-basal; for Papp B→A at 90 min, 10 μM: basal-to-apical
Method: Permeability in CALU-3 Cells:
Permeability measurements across polarized, confluent CALU-3 cell monolayers grown on permeable filter supports are used to provide information on the potential of a compound to pass the lung epithelium.
CALU-3 cells (1-2×10^5 cells/l cm^2 area) are seeded on filter inserts (Costar transwell polycarbonate filters, 0.4 μm pore size) and cultured (for 10-12 days DMEM) until tight monolayers are formed. Compounds of interest are dissolved in appropriate solvent (DMSO, 10 mM stock solution). […] The transport solution (TL) is applied to the apical or basolateral donor side for measuring A-B or B-A permeability (3 filter replicates), respectively. The receiver side contains the same buffer as the donor side. After 30 min of accommodation, samples are collected at the start t0=0 min and at the end of the experiment tn=90 min from the donor and at 0, 30, 60, and 90 min also from the receiver chamber. Volume removed is […] by HTP-4 buffer. The compound concentration in the samples is measured by HPLC-MS/MS or scintillation counting. The permeability coefficient (Papp) and efflux ratio are calculated according to: Papp [cm/s]=(concentration receiver [nM]*volume receiver [mL]/time interval [sec])*(1/filter area)*(1/donor concentration [nM]).

CC[n+]1c(CNC(=O)c2nc(Cl)c(N)nc2N)n(CCOCCOCCNC(=O)OC(C)(C)C)c2cc(OC)ccc21 [Example 1.01]
IC50 [1]: 3 nM

CC[n+]1c(CNC(=O)c2nc(Cl)c(N)nc2N)n(CC2(CO)COC2)c2cc(OC)ccc21 [Example 1.02]
IC50 [1]: 2 nM

CC[n+]1c(CNC(=O)c2nc(Cl)c(N)nc2N)n(CCCc2ccc(OCP(C)(C)=O)cc2)c2cc(OC)ccc21.O=C([O-])C(F)(F)F [Example 1.03]
IC50 [1]: 8 nM | Papp A→B at 90 min, 10 μM [2]: 0.1 ×10⁻⁶ cm/s | Papp B→A at 90 min, 10 μM [2]: 0.07 ×10⁻⁶ cm/s

COc1ccc2c(c1)n(CCF)c(CNC(=O)c1nc(Cl)c(N)nc1N)[n+]2CCOCCOCCO [Example 1.04]
IC50 [1]: 2 nM

C=CC[n+]1c(CNC(=O)c2nc(Cl)c(N)nc2N)n(CCOCCOCCO)c2ccc(OC)cc21 [Example 1.05]
IC50 [1]: 0.4 nM

COc1ccc2c(c1)[n+](CCF)c(CNC(=O)c1nc(Br)c(N)nc1N)n2CCOCCOCCO [Example 2.01]
IC50 [1]: 2 nM

CCn1c(CNC(=O)c2nc(Cl)c(N)nc2N)[n+](CC(=O)N(CCOC)CCOC)c2ccc(OC)cc21 [Example 3.01]
IC50 [1]: 10 nM

CCn1c(CNC(=O)c2nc(Cl)c(N)nc2N)[n+](CC(=O)N2CCOCC2)c2ccc(OC)cc21.[Br-] [Example 3.02]
IC50 [1]: 5 nM | Papp A→B at 90 min, 10 μM [2]: 0.06 ×10⁻⁶ cm/s | Papp B→A at 90 min, 10 μM [2]: 0.2 ×10⁻⁶ cm/s

CCNC(=O)C[n+]1c(CNC(=O)c2nc(Cl)c(N)nc2N)n(CC)c2cc(OC)ccc21 [Example 3.03]
IC50 [1]: 4 nM

CCn1c(CNC(=O)c2nc(Cl)c(N)nc2N)[n+](CC(=O)NCCOC)c2ccc(OC)cc21 [Example 3.04]
IC50 [1]: 3 nM

CCn1c(CNC(=O)c2nc(Cl)c(N)nc2N)[n+](CC(=O)N2CCN(C)CC2)c2ccc(OC)cc21 [Example 3.05]
IC50 [1]: 12 nM

CCn1c(CNC(=O)c2nc(Cl)c(N)nc2N)[n+](CC(=O)NCCN(C)C)c2ccc(OC)cc21.O=C(O)C(F)(F)F.O=C([O-])C(F)(F)F [Example 3.06]
IC50 [1]: 8 nM | Papp A→B at 90 min, 10 μM [2]: 0.1 ×10⁻⁶ cm/s | Papp B→A at 90 min, 10 μM [2]: 0.03 ×10⁻⁶ cm/s

CCn1c(CNC(=O)c2nc(Cl)c(N)nc2N)[n+](CC(=O)N(C)CCCN(C)C)c2ccc(OC)cc21 [Example 3.07]
IC50 [1]: 39 nM

CCn1c(CNC(=O)c2nc(Cl)c(N)nc2N)[n+](CC(=O)N2CCN(C(=O)OC(C)(C)C)CC2)c2ccc(OC)cc21.[Br-] [Example 3.08]
IC50 [1]: 4 nM | Papp A→B at 90 min, 10 μM [2]: 0.1 ×10⁻⁶ cm/s | Papp B→A at 90 min, 10 μM [2]: 0.08 ×10⁻⁶ cm/s

CCn1c(CNC(=O)c2nc(Cl)c(N)nc2N)[n+](CC(=O)N(C)CCN(C)C)c2ccc(OC)cc21 [Example 3.09]
IC50 [1]: 33 nM

CCn1c(CNC(=O)c2nc(Cl)c(N)nc2N)[n+](CC(N)=O)c2ccc(OC)cc21 [Example 3.10]
IC50 [1]: 1 nM

CCn1c(CNC(=O)c2nc(Cl)c(N)nc2N)[n+](CC(=O)N2CCC(N(C)C)CC2)c2ccc(OC)cc21 [Example 3.11]
IC50 [1]: 110 nM

CCn1c(CNC(=O)c2nc(Cl)c(N)nc2N)[n+](CC(=O)NC2CCN(C(=O)OC(C)(C)C)CC2)c2ccc(OC)cc21.[Br-] [Example 3.12]
IC50 [1]: 12 nM | Papp A→B at 90 min, 10 μM [2]: 0.09 ×10⁻⁶ cm/s | Papp B→A at 90 min, 10 μM [2]: 0.3 ×10⁻⁶ cm/s

CCn1c(CNC(=O)c2nc(Cl)c(N)nc2N)[n+](CC(=O)N(C)CCOC)c2ccc(OC)cc21.[Br-] [Example 3.13]
IC50 [1]: 7 nM | Papp A→B at 90 min, 10 μM [2]: 0.07 ×10⁻⁶ cm/s | Papp B→A at 90 min, 10 μM [2]: 0.2 ×10⁻⁶ cm/s

CCn1c(CNC(=O)c2nc(Cl)c(N)nc2N)[n+](CC(=O)NC)c2ccc(OC)cc21 [Example 3.14]
IC50 [1]: 2 nM

CCn1c(CNC(=O)c2nc(Cl)c(N)nc2N)[n+](CC(=O)N(CCO)CCO)c2ccc(OC)cc21 [Example 3.15]
IC50 [1]: 20 nM

CCn1c(CNC(=O)c2nc(Cl)c(N)nc2N)[n+](CC(=O)NCCCN(C)C(=O)OC(C)(C)C)c2ccc(OC)cc21 [Example 3.17]
IC50 [1]: 4 nM

CCn1c(CNC(=O)c2nc(Cl)c(N)nc2N)[n+](CC(=O)N2CCCN(C(=O)OC(C)(C)C)CC2)c2ccc(OC)cc21 [Example 3.21]
IC50 [1]: 28 nM

CCn1c(CNC(=O)c2nc(Cl)c(N)nc2N)[n+](CCCC(=O)NCCN(C)C)c2ccc(OC)cc21 [Example 4.01]
IC50 [1]: 1 nM

CC[n+]1c(CNC(=O)c2nc(Cl)c(N)nc2N)n(CCOCCOCCNC(=O)c2nc(Cl)c(N)nc2N)c2cc(OC)ccc21 [Example 5.01]
IC50 [1]: 4 nM

CC[n+]1c(CNC(=O)c2nc(Cl)c(N)nc2N)n(CCOCCOCCN)c2cc(OC)ccc21 [Example 6.02]
IC50 [1]: 4 nM

CCn1c(CNC(=O)c2nc(Cl)c(N)nc2N)[n+](CC(=O)NC2CCNCC2)c2ccc(OC)cc21 [Example 6.03]
IC50 [1]: 17 nM

CCn1c(CNC(=O)c2nc(Cl)c(N)nc2N)[n+](CC(=O)N2CCCNCC2)c2ccc(OC)cc21 [Example 6.04]
IC50 [1]: 63 nM

CCn1c(CNC(=O)c2nc(Cl)c(N)nc2N)[n+](CCNS(C)(=O)=O)c2ccc(OC)cc21 [Example 9.01]
IC50 [1]: 0.4 nM

CC[n+]1c(CNC(=O)c2nc(Cl)c(N)nc2N)n(CC2(CCc3ccccc3)CCN(C(=O)NC3CCN(C)CC3)CC2)c2ccccc21 [Example 10.01]
IC50 [1]: 2 nM
